Patent US20240269106A1, “SMALL MOLECULE MODULATOR TARGETING A RARE HISTONE MODIFICATION REGULATING ADIPOGENESIS AND PHARMACEUTICAL FORMULATION THEREOF” (COUNCIL OF SCIENTIFIC AND INDUSTRIAL RESEARCH AN INDIAN …, priority 2021, published 2024)

Columns and labels:
[1] = biological target: T1, full length p300 (Homo sapiens, UniProt Q09472); assay: In vitro p300 butyrylation assay (immunoblot); format: biochemical; settings: 25 μM
T1 construct: Purified full length p300 protein was used for in vitro acetylation/butyrylation assay
Procedure: Purified full length p300 protein was used for in vitro acetylation/butyrylation assay in presence/absence of different compounds. Acylation reactions were performed in reaction buffer (25 mM Tris-HCl PH 7.5, 100 mM NaCl, 0.1 mM EDTA, 1 mM DTT, 10% Glycerol, 1×PIC) with 100 ng/ml TSA, and 50 μM Butyryl-CoA/Acetyl COA. Xenopus histone H3 (500 ng) was used as the substrate and p300 (10,000 cpm activity) was used as the enzyme. Reactions were incubated in presence or absence of small molecule modulators (including compound of Formula I) for 10 minutes at 30° C., followed by initiation of the acetylation/butyrylation reaction by the addition of acetyl/butyryl CoA. After a further 10 minutes, reactions were stopped by addition of Laemmli buffer and samples were used for immunoblotting.
Immunoblotting with antibodies against acetylated H3K18, acetylated H3K9 and pan-butyryl lysine was performed to check for the relative inhibition of acetyl transferase and butyryl transferase activities of full length p300 by garcinol, isogarcinol and its different derivatives including compound of Formula I at different concentrations. FIG. 2i depicts the effect of garcinol, isogarcinol and two of its derivatives LTK-13 and LTK-14 on p300 catalysed acetyltransferase activity. […] FIG. 2ii depicts the effect of LTK-14 on acetylation and butyrylation catalysed by p300. Lane 1, enzyme alone; Lane 2-4, enzyme+LTK-14 at concentrations 500 nM, 2 μM and 10 μM, respectively. LTK-14 could inhibit acetylation at 10 μM concentration while butyrylation was inhibited at 2 μM concentration. FIG. 2iii depicts the effect of compound x on acetylation and butyrylation catalysed by p300. Lane 1, enzyme alone; Lane 2, enzyme+DMSO; Lane 3-6, enzyme+compound x at concentrations 10, 15, 20 and 25 μM, respectively.

[2] = tested on: 3T3L1 cells; assay: MTT assay for cytotoxicity testing; format: cell-based; settings: 25 μM; 2, 4 and 6 days
Procedure: 12500 cells/mL were seeded in presence/absence of compound of Formula I in […] plate and at different intervals of time (2 days, 4 days, 6 days), 1/10th volume of 5 mg/ml MTT solution was added to it followed by incubation at 37° C. for 3 hours. The formed crystals were dissolved in DMSO and spectrometric estimation of colour intensity was done at 570 nm.
MTT assay was performed to check for any possible cellular toxicity effect of compound of Formula I, using 25 μM concentration of the compound on 3T3L1 cells upon incubation for varying lengths of time (2, 4 and 6 days). Comparison was done with cells that were left untreated or treated with DMSO as solvent control (FIG. 3).

[3] = tested on: 3T3L1 cells; assay: Adipogenesis of 3T3L1 cell line, Oil Red-O staining; format: cell-based
Procedure: The preadipocyte cell line 3T3L1 was seeded in complete DMEM (supplemented with 10% FBS). Once the cells reached almost full confluent state, they were treated with differentiation media (2 μg/mL Insulin, 0.5 mM IBMX and 1 μM Dexamethasone) for 2 days. After the differentiation induction, the cells were kept in maintenance media (2 μg/mL Insulin) for another 4-6 days with media change given every 2 days. The completion of adipogenesis was confirmed by the observation of lipid droplet accumulation in most of the cells. On the 6th day post induction of differentiation the cells were fixed with 3.7% formaldehyde solution followed by staining with Oil Red-O dye (prepared in 60% isopropanol) for 1 hour at room temperature. The incorporated dye was extracted using isopropanol and absorbance values were determined spectrophotometrically at 510 nm to estimate total amount of lipid accumulation under different experimental conditions.

[4] = tested on: histone acetylation and butyrylation in 3T3L1 cells; assay: Immunoblotting of histone modification status in 3T3L1; format: cell-based; settings: 3T3L1 induced to undergo adipogenesis
Procedure: Histones were acid extracted from both undifferentiated and differentiated 3T3L1 for comparison of acetylation and butyrylation levels. For the acid extraction, 3T3L1 cells were washed with ice-cold PBS (supplemented with 5 mm NaBu) and then resuspended in Triton extraction buffer (PBS containing 0.5% Triton X-100 (v/v) and 2 mM PMSF). The cells were allowed to lyse on ice for 10 minutes, spun down, washed with PBS and the process was repeated another time. Then the proteins were acid extracted with 0.2 N HCl for two hours on ice. The debris was spun down and then histones were precipitated by incubating the supernatant with 33% Trichloroacetic acid at 4° C. for 30 minutes. The histones were then pelleted down and then given two washes with acetone. The pellet was allowed to air-dry for 10 minutes and then resuspended with 50 mm Tris-Cl, pH 7.4.
The histones were then run in 15% SDS-PAGE, transferred onto PVDF membrane, blocked with 5% skimmed milk solution to prevent non-specific antibody binding, and finally probed with antibodies against acetylation and butyrylation marks.
Acid extraction of histones was performed from 3T3L1 cells that had been induced to undergo adipogenesis in the absence of any inhibitor (No Inhibitor), in presence of DMSO (solvent control) and in presence of compound of Formula I. The extraction protocol was the same as that described in Example 7.
Histone acetylation levels in 3T3L1 cells that were treated with compound of Formula I were compared with that in DMSO treated and untreated conditions by immunoblotting with antibodies against acetylated histones H3K18, H3K9 and H4K12 (FIG. 7). Histones H3 and H4 were used as loading controls (panel i). Under similar conditions histone butyrylation levels were compared by immunoblotting using antibodies against butyrylated histone H3K23, H4K5 and pan-butyryl lysine (panel ii).

T1 sequence (Q09472 whole entry, species assumed): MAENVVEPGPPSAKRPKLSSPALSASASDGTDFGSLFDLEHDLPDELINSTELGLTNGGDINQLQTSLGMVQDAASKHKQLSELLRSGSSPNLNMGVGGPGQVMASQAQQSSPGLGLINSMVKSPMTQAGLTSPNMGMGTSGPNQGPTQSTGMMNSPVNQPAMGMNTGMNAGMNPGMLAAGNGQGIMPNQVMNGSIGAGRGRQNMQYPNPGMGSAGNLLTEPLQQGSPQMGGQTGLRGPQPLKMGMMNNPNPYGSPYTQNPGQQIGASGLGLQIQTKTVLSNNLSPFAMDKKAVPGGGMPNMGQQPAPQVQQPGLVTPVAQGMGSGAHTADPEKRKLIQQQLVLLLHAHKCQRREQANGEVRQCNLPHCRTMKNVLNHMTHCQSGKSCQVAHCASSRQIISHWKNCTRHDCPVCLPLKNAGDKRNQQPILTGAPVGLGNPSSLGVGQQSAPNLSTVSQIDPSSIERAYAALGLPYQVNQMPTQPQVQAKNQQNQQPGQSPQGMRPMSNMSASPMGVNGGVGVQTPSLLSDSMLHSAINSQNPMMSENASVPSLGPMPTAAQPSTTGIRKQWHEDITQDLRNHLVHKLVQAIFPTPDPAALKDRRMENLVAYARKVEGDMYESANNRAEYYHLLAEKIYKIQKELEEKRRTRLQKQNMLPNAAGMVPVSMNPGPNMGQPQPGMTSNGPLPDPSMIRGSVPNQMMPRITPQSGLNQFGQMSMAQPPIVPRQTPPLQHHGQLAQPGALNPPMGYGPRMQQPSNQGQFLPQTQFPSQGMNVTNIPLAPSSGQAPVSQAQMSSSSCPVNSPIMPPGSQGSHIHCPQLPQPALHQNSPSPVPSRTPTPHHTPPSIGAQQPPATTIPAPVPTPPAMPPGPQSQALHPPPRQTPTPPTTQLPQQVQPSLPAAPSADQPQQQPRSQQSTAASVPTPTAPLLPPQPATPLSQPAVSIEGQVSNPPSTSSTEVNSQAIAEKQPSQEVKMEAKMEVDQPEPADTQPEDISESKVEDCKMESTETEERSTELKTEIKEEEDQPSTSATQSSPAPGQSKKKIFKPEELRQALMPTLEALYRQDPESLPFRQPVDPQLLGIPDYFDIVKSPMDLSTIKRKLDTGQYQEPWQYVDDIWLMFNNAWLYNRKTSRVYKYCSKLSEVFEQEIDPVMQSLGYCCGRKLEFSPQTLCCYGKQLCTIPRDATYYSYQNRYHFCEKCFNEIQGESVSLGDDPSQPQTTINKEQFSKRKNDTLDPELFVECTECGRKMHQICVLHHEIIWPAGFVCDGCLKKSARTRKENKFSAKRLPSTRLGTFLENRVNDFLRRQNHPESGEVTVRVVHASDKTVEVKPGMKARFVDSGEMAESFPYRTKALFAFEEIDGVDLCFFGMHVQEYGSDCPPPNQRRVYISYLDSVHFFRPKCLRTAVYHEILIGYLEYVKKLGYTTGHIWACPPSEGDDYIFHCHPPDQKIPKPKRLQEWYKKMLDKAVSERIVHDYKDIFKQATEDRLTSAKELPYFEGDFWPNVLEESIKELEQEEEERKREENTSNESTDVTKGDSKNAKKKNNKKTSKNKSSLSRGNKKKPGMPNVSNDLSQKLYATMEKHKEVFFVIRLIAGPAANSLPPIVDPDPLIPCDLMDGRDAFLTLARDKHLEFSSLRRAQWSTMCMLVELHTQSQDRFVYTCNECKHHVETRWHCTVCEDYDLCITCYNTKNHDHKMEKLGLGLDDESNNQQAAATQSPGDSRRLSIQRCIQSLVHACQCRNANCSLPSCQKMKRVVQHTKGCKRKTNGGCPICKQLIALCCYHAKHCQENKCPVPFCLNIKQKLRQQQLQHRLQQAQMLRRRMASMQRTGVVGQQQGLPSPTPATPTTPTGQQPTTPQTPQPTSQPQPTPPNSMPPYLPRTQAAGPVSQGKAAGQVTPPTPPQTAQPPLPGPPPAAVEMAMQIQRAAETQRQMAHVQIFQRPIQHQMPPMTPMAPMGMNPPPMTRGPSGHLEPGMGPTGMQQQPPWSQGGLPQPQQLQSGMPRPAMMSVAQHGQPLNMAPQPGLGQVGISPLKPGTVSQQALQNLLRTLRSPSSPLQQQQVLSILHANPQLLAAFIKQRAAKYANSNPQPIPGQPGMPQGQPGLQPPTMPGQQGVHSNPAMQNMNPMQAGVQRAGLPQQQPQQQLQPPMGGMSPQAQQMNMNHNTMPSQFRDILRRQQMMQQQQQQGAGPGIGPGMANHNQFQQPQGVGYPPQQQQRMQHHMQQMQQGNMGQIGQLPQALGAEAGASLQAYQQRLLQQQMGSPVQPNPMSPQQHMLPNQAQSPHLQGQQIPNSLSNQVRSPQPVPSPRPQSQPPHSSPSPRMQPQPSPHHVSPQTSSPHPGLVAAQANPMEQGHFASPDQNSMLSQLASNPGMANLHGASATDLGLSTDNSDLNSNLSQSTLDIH

Question: With `COc1ccc(C(=O)C2=C3OC(C)(C)[C@@H](CC=C(C)C)C[C@@]34C[C@@H](CC=C(C)C)C(C)(C)[C@@](CC=C(C)C)(C2=O)C4=O)cc1OC` [Compound X] as the compound, how does the “effect on butyrylation catalysed by p300” value [1] read?
Answer: significant inhibitory effect

Question: And the “toxic effect (MTT)” value [2]?
Answer: No toxic effect

Question: What about the “adipogenesis, Oil-Red O staining” value [3] of the same compound?
Answer: inhibition of adipogenesis

Question: And the “H3K23 Bu mark” value [4]?
Answer: showed inhibition

Question: What about the “H4K5 Bu mark” value [4] of the same compound?
Answer: showed inhibition

Question: What about the “histone acetylation (H3K18, H3K9, H4K12)” value [4] of the same compound?
Answer: not found to be affected
